The subject of series [1] is HIV-1 IIIB strain. The series is described as follows: MT-4 HIV Wild Type Virus Infection Assay (IIIB Virus). The series is classed as cell-based. The conditions noted are these: Human immunodeficiency virus 1, IIIB, MT4, 120 h, MT-4 cells acutely infected with HIV-1 IIIB, 5 day incubation, Cell-titer glo. The method in brief:
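MT-4 cells at 2×10^6 cells/ml in RPMI/10% FBS were acutely infected with HIV-1 IIIB for 1 h at 37° C, diluted 25× and added to serially diluted compounds. After 5 days at 37° C, viability read by CellTiter-Glo luminescence; EC50 from dose-response curves.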

For series [2], the target named is bovine intestinal alkaline phosphatase (Bos taurus (Bovine), UniProt P19111). The series can be described thus: BiALP: conversion by bovine intestinal alkaline phosphatase. It counts as in vitro ADME. The settings on record: 2 μM substrate, 100 ng/mL iALP, Tris pH 7.8, 37° C., 60 minutes; for [Intermediate A] or [Amprenavir]: parent formed. The method, boiled down: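 Compounds at 2 μM final were incubated 60 min at 37° C in 0.1 M Tris-HCl pH 7.8 with 1 mM MgCl2 and 1 mM ZnCl2, with or without 100 ng/mL iALP (0.01 units/mL). Samples were quenched with acetonitrile/formic acid containing labetalol. Conversion was quantified by LC-MS peak area ratios against a 2 μM product standard.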
bovine intestinal alkaline phosphatase, sequence (P19111 20-506): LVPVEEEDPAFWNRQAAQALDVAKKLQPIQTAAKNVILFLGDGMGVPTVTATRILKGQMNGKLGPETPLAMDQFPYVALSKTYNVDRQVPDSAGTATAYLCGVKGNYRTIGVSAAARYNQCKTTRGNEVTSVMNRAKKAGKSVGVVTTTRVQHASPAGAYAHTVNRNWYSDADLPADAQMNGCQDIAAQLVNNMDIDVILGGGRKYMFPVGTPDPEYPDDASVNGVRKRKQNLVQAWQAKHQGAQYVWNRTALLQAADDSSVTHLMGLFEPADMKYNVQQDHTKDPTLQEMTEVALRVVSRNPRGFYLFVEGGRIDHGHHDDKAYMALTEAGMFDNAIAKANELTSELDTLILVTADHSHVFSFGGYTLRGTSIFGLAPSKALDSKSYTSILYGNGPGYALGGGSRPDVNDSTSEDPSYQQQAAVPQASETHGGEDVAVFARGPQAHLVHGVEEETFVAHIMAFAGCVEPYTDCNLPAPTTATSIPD

Series [3] can be described thus: Intestinal S9 Assay (human GI S9). The series is classed as in vitro ADME. The settings on record: 1.0 mg/mL S9 protein; for half-life at 2 μM: human, TRIS pH 7.4, read-out: Human GI S9 T½; for Human GI S9 [Intermediate A] / Human GI S9 [Intermediate A] %: 2 μM, TRIS pH 7.4. As to the method: (§1) Reagents. Stock solutions of test compounds in dimethyl sulfoxide (DMSO) having a final concentration of 10 mM were prepared and used in all experiments. Sekisui XenoTech (Kansas City, KS) provided pooled intestinal S9 fractions. All other chemicals were purchased from Sigma-Aldrich (St. Louis, MO) or VWR (West Chester, PA). Internal Standard/Quench (IS/Q) used to stop reactions was 100 nM labetalol in (by volume) formic acid (1%) and acetonitrile (99%).
(§2) Intestinal S9 Assay: For each test compound, an aliquot of the test compound was added to S9 stock diluted with TRIS buffer (100 mM TRIS, 1 mM ZnCl2, 1 mM MgCl2), pH 7.4, to obtain an incubation protein concentration of 1.0 mg/mL. The incubation was initiated by the addition of the substrate to the S9 reaction mixture to a final concentration of 2 μM. At 0, 10, 20, 30, 60 and 120 min, 25 μL aliquots of the reaction mixture were transferred to plates containing 225 μl of IS/Q solution. After quenching, the plates were centrifuged at 3000×g for 30 minutes. 150 μL aliquots of each supernatant were transferred to new plates and 150 μL water was added. Aliquots (10 μL) of the prepared samples were analyzed on a Thermo Q-Exactive mass spectrometer as described below.
(§3) Liquid Chromatography-Mass Spectrometry: Quantification of test compounds and control substrate was performed by analyte/internal standard peak area ratio (PAR) values measured on a Thermo Q-Exactive mass spectrometer coupled to a Dionex UltiMate 3000 HPLC with a Leap Technologies HTC PAL autosampler. The column used for analysis was a Thermo Scientific Hypersil GOLD (1.9 μm particle size, 50×2.1 mm). Mobile phase A consisted of 0.1% (v/v) formic acid in water. Mobile phase B consisted of 0.1% (v/v) formic acid in acetonitrile. Elution of analytes was achieved by a series of linear gradients varying the proportions of A and B. The mass spectrometer was calibrated on a weekly basis and mass tolerance of 5 ppm was used.
(§4) Data Analysis. Metabolic stabilities were determined by measuring the rates of disappearance of test compound and positive control substrate. Data (% of substrate remaining) were plotted on a semi-log scale and fitted using an exponential decline model:
(§5) where • Ct% of substrate remaining at time=t • C0% of substrate remaining at time=0 • t time • T½ half-life • The Half-life (T½) is determined by the following equation:
(§6) [formula] • Assuming a first-order reaction, the slope (k) is extrapolated from the aforementioned plotted data.

The nature of series [4]: Intestinal S9 Assay (dog GI S9). It counts as in vitro ADME. The conditions noted are these: 1.0 mg/mL S9 protein; for half-life at 2 μM: dog, TRIS pH 7.4, read-out: Dog GI S9 T½; for Dog GI S9 [Intermediate A] / Dog GI S9 [Intermediate A] %: 2 μM, TRIS pH 7.4. How it is done: as §1, §2, §3, §4, §5, §6
The nature of series [5]: PBS Stability Assay. It counts as physicochemical. The settings on record: buffer, pH 7.4, 2 μM, phosphate buffered saline pH 7.4; read-out: PBS T½. The method in brief: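 Test compound at 2 μM final was incubated in PBS, pH 7.4, and sampled at 0, 10, 20, 30, 60 and 120 min into acetonitrile/1% formic acid quench with labetalol internal standard. Remaining compound was quantified by LC-MS peak-area ratio, and half-life came from a first-order exponential fit.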

Series [6] in a line: physchem. The conditions noted are these: 23 °C, pH 6.5, fassif, thermodynamic from solid; for solubility: FaSSIF (pH 6.5) solubility, FaSSIF pH 6.5, dose 5 mg/mL, 2-hour incubation, ambient temperature. The method in brief: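 Concentration measured by HPLC-UV after solid compound was dosed at 5 mg/mL into pH 6.5 fasted-state simulated intestinal fluid containing taurocholate and lecithin (4:1 molar) and vortexed.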

Converted amounts (≈) assume the structure as drawn. Where two headings read alike, the source gives them in different places. Bounds are passed on as bounds.

For the compound `COC(=O)N[C@H](C(=O)N[C@@H](Cc1ccc(C#Cc2cnc(N3CC4CCC(C3)N4C3COC3)nc2)cc1)[C@H](CN(Cc1c(F)cc(-c2ccn(C(F)F)n2)cc1F)NC(=O)[C@@H](NC(=O)OC)C(C)(C)C(F)(F)F)OC(=O)CC(C)(C)c1c(C)cc(C(=O)O)cc1OP(=O)(O)O)C(C)(C)C(F)(F)F` [Example 3, 4-((5S,10S)-8-(4-(1-(difluoromethyl)-1H-pyrazol-3-yl)-2,6-difluorobenzyl)-14-methyl-10-((1S)-2-(4-((2-(8-(oxetan-3-yl)-3,8-diazabicyclo[3.2.1]octan-3-yl)pyrimidin-5-yl)ethynyl)phenyl)-1-((S)-4,4,4-trifluoro-2-((methoxycarbonyl)amino)-3,3-dimethylbutanamido)ethyl)-3,6,12-trioxo-5-(1,1,1-trifluoro-2-methylpropan-2-yl)-2,11-dioxa-4,7,8-triazapentadecan-14-yl)-3-methyl-5-(phosphonooxy)benzoic acid], in series [1] (read-out: EC50), the EC50 came out at 96.6 nM. For the same compound, in series [2], the “[Compound]” value was 1197.7 nM. In addition, the half-life at 2 μM turned out to be 1.98 h in series [3], 0.685 h in series [4] and 4.19 h in series [5].
Take `COC(=O)N[C@H](C(=O)N[C@@H](Cc1ccc(C#Cc2cnc(N3CC4CCC(C3)N4C3COC3)nc2)cc1)[C@H](CN(Cc1c(F)cc(-c2ccn(C(F)F)n2)cc1F)NC(=O)[C@@H](NC(=O)OC)C(C)(C)C(F)(F)F)OC(=O)CC(C)(C)c1c(CC(=O)O)cc(C)cc1OP(=O)(O)O)C(C)(C)C(F)(F)F` [Example 4]: in series [1] (read-out: EC50), the EC50 is 20.7 nM. Besides, the “[Compound]” value in series [2] came to 1627.4 nM. In addition, the half-life at 2 μM in series [3] was 7.74 h; in series [4], 1.69 h; in series [5] it was 9.43 h. Further, the solubility in series [6] stood at 272 µg/mL (≈ 183 µM).
Consider `COC(=O)N[C@H](C(=O)N[C@@H](Cc1ccc(C#Cc2cnc(N3CC4CCC(C3)N4C3COC3)nc2)cc1)[C@H](CN(Cc1c(F)cc(-c2ccn(C(F)F)n2)cc1F)NC(=O)[C@@H](NC(=O)OC)C(C)(C)C(F)(F)F)OC(=O)CC(C)(C)c1c(CC(=O)O)cccc1OP(=O)(O)O)C(C)(C)C(F)(F)F` [Example 5, 2-(2-((5S,10S)-8-(4-(1-(difluoromethyl)-1H-pyrazol-3-yl)-2,6-difluorobenzyl)-14-methyl-10-((1S)-2-(4-((2-(8-(oxetan-3-yl)-3,8-diazabicyclo[3.2.1]octan-3-yl)pyrimidin-5-yl)ethynyl)phenyl)-1-((S)-4,4,4-trifluoro-2-((methoxycarbonyl)amino)-3,3-dimethylbutanamido)ethyl)-3,6,12-trioxo-5-(1,1,1-trifluoro-2-methylpropan-2-yl)-2,11-dioxa-4,7,8-triazapentadecan-14-yl)-3-(phosphonooxy)phenyl)acetic acid], for which the EC50 in series [1] (read-out: EC50) was 73.7 nM. For the same compound, in series [2], the “[Compound]” value amounted to 1638.1 nM. For the same compound, the half-life at 2 μM in series [3] turned out to be 11.6 h; in series [4], 0.74 h; in series [5], 7.62 h. The compound also showed a solubility in series [6] of less than 1000 µg/mL.
In the case of `COC(=O)N[C@H](C(=O)N[C@@H](Cc1ccc(C#Cc2cnc(N3CC4CCC(C3)N4C3COC3)nc2)cc1)[C@H](CN(Cc1c(F)cc(-c2ccn(C(F)F)n2)cc1F)NC(=O)[C@@H](NC(=O)OC)C(C)(C)C(F)(F)F)OC(=O)CC(C)(C)c1c(CC(=O)N[C@@H](CCC(=O)O)C(=O)O)cccc1OP(=O)(O)O)C(C)(C)C(F)(F)F` [Example 6], the 50% effective concentration (EC50) in series [1] stood at 20.7 nM. For the same compound, in series [2], the “[Compound]” value is listed as 1304.1 nM, the “biALP Intermediate A or [Amprenavir] (% of total)” value was 19 % of total and the “[Intermediate A] or [Amprenavir]” value worked out at 306.6 nM. In series [3], the “Human GI S9 [Intermediate A]” value was 363.6 nM, the “Human GI S9 [Intermediate A] %” value was 28.2% and the half-life at 2 μM is 2.57 h. Further, in series [4], the “Dog GI S9 [Intermediate A]” value worked out at 1236 nM, the “Dog GI S9 [Intermediate A] %” value is recorded as 93.8% and the half-life at 2 μM came to 0.393 h. Moreover, the half-life at 2 μM in series [5] is 10.9 h. This compound also gave a solubility at 2 h in series [6] of 3710 µg/mL (≈ 2320 µM).
`COC(=O)N[C@H](C(=O)N[C@@H](Cc1ccc(C#Cc2cnc(N3CC4CCC(C3)N4C3COC3)nc2)cc1)[C@H](CN(Cc1c(F)cc(-c2ccn(C(F)F)n2)cc1F)NC(=O)[C@@H](NC(=O)OC)C(C)(C)C(F)(F)F)OC(=O)CC(C)(C)c1c(CC(=O)NCC(=O)O)cccc1OP(=O)(O)O)C(C)(C)C(F)(F)F` [Example 7] came in with a half-maximal effective concentration (EC50) in series [1] of 23.2 nM. Further, in series [2], the “[Compound]” value turned out to be 1590.8 nM, the “biALP Intermediate A or [Amprenavir] (% of total)” value is on record as 9.4 % of total and the “[Intermediate A] or [Amprenavir]” value was 164.7 nM. Besides, in series [3], the “Human GI S9 [Intermediate A]” value is listed as 404.7 nM, the “Human GI S9 [Intermediate A] %” value was determined as 31.3% and the half-life at 2 μM was 2.27 h. In series [4], the “Dog GI S9 [Intermediate A]” value was found to be 1224.2 nM, the “Dog GI S9 [Intermediate A] %” value is 91% and the half-life at 2 μM was 0.457 h. In addition, the half-life at 2 μM in series [5] was found to be 8.72 h. This compound yielded a solubility at 2 h in series [6] of 5490 µg/mL (≈ 3590 µM).
The compound `COC(=O)N[C@H](C(=O)N[C@@H](Cc1ccc(C#Cc2cnc(N3CC4CCC(C3)N4C3COC3)nc2)cc1)[C@H](CN(Cc1c(F)cc(-c2ccn(C(F)F)n2)cc1F)NC(=O)[C@@H](NC(=O)OC)C(C)(C)C(F)(F)F)OC(=O)CC(C)(C)c1c(CC(=O)N2CC[C@@H]2C(=O)O)cc(C)cc1OP(=O)(O)O)C(C)(C)C(F)(F)F` [Example 9] returned an EC50 in series [1] of 241 nM. Besides, in series [2], the “[Compound]” value is 2004.9 nM, the “biALP Intermediate A or [Amprenavir] (% of total)” value is given as 1.8 % of total and the “[Intermediate A] or [Amprenavir]” value was found to be 36.5 nM. Besides, the half-life at 2 μM in series [3] was determined as 8.93 h. For the same compound, the half-life at 2 μM in series [4] is 1.14 h. In addition, the half-life at 2 μM in series [5] stood at 10.4 h. In addition, in series [6], the solubility at 2 h amounted to 2300 µg/mL (≈ 1470 µM).
For the compound `COC(=O)N[C@H](C(=O)N[C@@H](Cc1ccc(C#Cc2cnc(N3CC4CCC(C3)N4C3COC3)nc2)cc1)[C@H](CN(Cc1c(F)cc(-c2ccn(C(F)F)n2)cc1F)NC(=O)[C@@H](NC(=O)OC)C(C)(C)C(F)(F)F)OC(=O)CC(C)(C)c1c(CC(=O)N[C@@H](CS(=O)(=O)O)C(=O)O)cc(C)cc1OP(=O)(O)O)C(C)(C)C(F)(F)F` [Example 32], the half-maximal effective concentration (EC50) in series [1] amounted to 137 nM. The half-life at 2 μM in series [3] was 3.87 h; in series [4], 1 h; in series [5] it was 5.18 h. Also, the concentration in solution in series [6] (solubility at 2 h) came to 3400 µg/mL (≈ 2080 µM).
As for `COC(=O)N[C@H](C(=O)N[C@@H](Cc1ccc(C#Cc2cnc(N3CC4CCC(C3)N4C3COC3)nc2)cc1)[C@H](CN(Cc1c(F)cc(-c2ccn(C(F)F)n2)cc1F)NC(=O)[C@@H](NC(=O)OC)C(C)(C)C(F)(F)F)OC(=O)CC(C)(C)c1c(CC(=O)Nc2cccc(S(=O)(=O)O)c2)cc(C)cc1OP(=O)(O)O)C(C)(C)C(F)(F)F` [Example 105], a half-maximal response in series [1] (EC50) required 217 nM. Further, the “[Compound]” value in series [2] is 1626.1 nM. Also, the half-life at 2 μM in series [3] worked out at 9.3 h; in series [4], 4.85 h; in series [5], 5.51 h.

A word on the EC50: it is the concentration that produces a half-maximal response. As a reminder, the solubility is how much of the substance goes into solution per volume.

These data come from patent US20250051375A1, “ANTI-HIV COMPOUNDS” (Gilead Sciences, Inc., priority 2023, published 2025).
